Patent publication US7655669B2, “Pyrimidineamide derivatives and the use thereof” (Novartis AG, priority 2002, dated 2010)

Experiments:
[1] = molecular target: T1, c-Abl protein tyrosine kinase (Homo sapiens, UniProt P00519); assay: Test for activity against c-Abl protein tyrosine kinase (filter binding assay); format: biochemical; details: expressed as a range within which individual IC50 measurements fall
T1 construct: The His-tagged kinase domain of c-Abl is cloned and expressed in the baculovirus/Sf9 system; His; made in house; host or cells: baculovirus/Sf9
T1 sequence (P00519 242-493 limits assumed): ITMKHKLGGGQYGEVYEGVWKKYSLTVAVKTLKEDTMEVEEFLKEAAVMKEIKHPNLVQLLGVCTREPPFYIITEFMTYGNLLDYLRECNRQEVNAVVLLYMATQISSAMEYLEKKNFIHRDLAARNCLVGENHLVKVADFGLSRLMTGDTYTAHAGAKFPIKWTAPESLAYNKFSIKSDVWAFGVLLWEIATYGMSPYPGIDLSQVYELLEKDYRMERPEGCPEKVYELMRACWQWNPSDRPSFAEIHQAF
Method: Test for activity against c-Abl protein tyrosine kinase. […] The assay contains: c-Abl kinase (50 ng), 20 mM Tris-HCl, pH 7.5, 10 mM MgCl2, 10 μM Na3VO4, 1 mM DTT and 0.06 μCi/assay [γ^33P]-ATP (5 μM ATP) using 30 μg/mL poly-Ala,Glu,Lys,Tyr-6:2:5:1 (Poly-AEKY, Sigma P1152) in the presence of 1% DMSO, total volume of 30 μL. Reactions are terminated by adding 10 μL of 250 mM EDTA, and 30 μL of the reaction mixture is transferred onto Immobilon-PVDF membrane (Millipore, Bedford, Mass., USA) previously soaked for 5 min with methanol, rinsed with water, then soaked for 5 min with 0.5% H3PO4 and mounted on vacuum manifold with disconnected vacuum source. After spotting all samples, vacuum is connected and each well rinsed with 200 μL 0.5% H3PO4. Membranes are removed and washed on a shaker with 0.5% H3PO4 (4 times) and once with ethanol. Membranes are counted after drying at ambient temperature, mounting in Packard TopCount 96-well frame, and addition of 10 μL/well of Microscint™ (Packard).

p210 Bcr-Abl = molecular target: T2, p210 Bcr-Abl (Homo sapiens, UniProt P00519); assay: Test for activity against Bcr-Abl (Bcr-Abl phosphorylation ELISA in 32D-bcr/abl cells); format: cell-based; details: expressed as a range within which individual IC50 measurements fall
T2 construct: expressed in transfected cells; host or cells: murine myeloid progenitor cell line 32Dcl3 (32D-bcr/abl), from J. Griffin; the other entry of the earlier key: BCR (P11274, Breakpoint cluster region protein)
T2 sequence (P00519 28-1130 limits assumed): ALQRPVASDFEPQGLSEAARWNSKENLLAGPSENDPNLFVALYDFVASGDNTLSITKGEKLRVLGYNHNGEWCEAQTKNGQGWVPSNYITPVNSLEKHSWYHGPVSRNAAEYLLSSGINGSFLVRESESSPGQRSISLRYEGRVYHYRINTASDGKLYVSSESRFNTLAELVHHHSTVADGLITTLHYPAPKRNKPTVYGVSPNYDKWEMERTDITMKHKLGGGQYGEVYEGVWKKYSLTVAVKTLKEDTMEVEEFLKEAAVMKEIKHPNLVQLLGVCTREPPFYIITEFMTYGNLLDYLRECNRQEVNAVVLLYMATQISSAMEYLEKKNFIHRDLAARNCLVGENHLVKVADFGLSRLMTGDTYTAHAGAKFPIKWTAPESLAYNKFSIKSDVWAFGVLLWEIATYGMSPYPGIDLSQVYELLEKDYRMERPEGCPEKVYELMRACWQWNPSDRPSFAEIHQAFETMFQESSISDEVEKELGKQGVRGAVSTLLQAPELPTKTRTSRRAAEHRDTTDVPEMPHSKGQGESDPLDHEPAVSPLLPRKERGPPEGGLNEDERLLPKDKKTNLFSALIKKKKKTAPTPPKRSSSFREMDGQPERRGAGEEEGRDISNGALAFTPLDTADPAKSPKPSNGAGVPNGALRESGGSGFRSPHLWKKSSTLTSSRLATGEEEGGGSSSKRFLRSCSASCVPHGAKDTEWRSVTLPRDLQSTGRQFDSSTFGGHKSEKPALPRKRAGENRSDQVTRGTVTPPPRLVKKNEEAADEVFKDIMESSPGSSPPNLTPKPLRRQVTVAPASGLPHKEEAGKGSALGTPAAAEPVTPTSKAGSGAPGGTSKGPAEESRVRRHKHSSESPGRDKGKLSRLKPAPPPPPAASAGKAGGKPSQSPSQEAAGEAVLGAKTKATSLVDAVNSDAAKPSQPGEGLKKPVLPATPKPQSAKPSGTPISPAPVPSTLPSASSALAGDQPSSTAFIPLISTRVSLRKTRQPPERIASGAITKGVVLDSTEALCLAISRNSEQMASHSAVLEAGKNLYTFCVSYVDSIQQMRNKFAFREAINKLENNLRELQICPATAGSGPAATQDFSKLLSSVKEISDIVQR
From the text: Test for activity against Bcr-Abl. The murine myeloid progenitor cell line 32Dcl3 transfected with the p210 Bcr-Abl expression vector pGDp210Bcr/Abl (32D-bcr/abl) was obtained from J. Griffin (Dana Faber Cancer Institute, Boston, Mass., USA). The cells express the fusion Bcr-Abl protein with a constitutively active Abl kinase and proliferate growth factor independent. […] After thawing, the cells are used during maximally 10-12 passages for the experiments.
For cellular assays, compounds are dissolved in DMSO and diluted with complete medium to yield a starting concentration of 10 μM followed by preparation of serial 3-fold dilutions in complete medium. 200,000 32D-Bcr/Abl cells in 50 μL complete medium are seeded per well in 96 well round bottom tissue culture plates. 50 μL per well of serial 3-fold dilutions of the test compound are added to the cells in triplicates. Untreated cells are used as control. The compound is incubated together with the cells for 90 min at 37° C., 5% CO2, followed by centrifugation of the tissue culture plates at 1300 rpm (Beckman GPR centrifuge) and removal of the supernatants by careful aspiration taking care not to remove any of the pelleted cells. The cell pellets are lysed by addition of 150 μL lysis buffer (50 mM Tris/HCl, pH 7.4, 150 mM sodium chloride, 5 mM EDTA, 1 mM EGTA, 1% NP-40, 2 mM sodium ortho-vanadate, 1 mM PMSF, 50 μg/mL aprotinin and 80 μg/mL leupeptin) and either used immediately for the ELISA or stored frozen in the plates at −20° C. until usage.
After washing 3 times with 200 μL/well PBS containing 0.05% Tween20 (PBST) and 0.5% TopBlock (Juro), residual protein binding sites are blocked with 200 μL/well PBST, 3% TopBlock for 4 h at room temperature followed by incubation with 50 μL lysates of untreated or compound-treated cells (20 μg total protein per well) for 3-4 h at 4° C. After 3 washings, 50 μL/well anti-phosphotyrosine Ab PY20(AP) labeled with alkaline phosphatase (Zymed) diluted to 0.2 μg/mL in blocking buffer is added and incubated over night (4° C.). For all incubation steps the plates are covered with plate sealers (Costar). Finally, the plates are washed another three times with washing buffer and once with deionized water before addition of 90 μL/well of the AP-substrate CDPStar RTU with Emerald II. The plates, now sealed with Packard TopSeal™-A plate sealers, are incubated for 45 min at room temperature in the dark and luminescence is quantified by measuring counts per second (CPS) with a Packard Top Count Microplate Scintillation Counter (Top Count).
The difference between the ELISA-readout (CPS) obtained for with the lysates of the untreated 32D-Bcr/Abl cells and the readout for the assay-background (all components, but without cell lysate) is calculated and taken as 100% reflecting the constitutively phosphorylated Bcr-Abl protein present in these cells. The activity of the compound on the Bcr-Abl kinase activity is expressed as percent reduction of the Bcr-Abl phosphorylation. The values for the IC50 and IC90 are determined from the dose response curves by graphical extrapolation.

Row | Compound | IC50 [1] [nM] | IC50 (p210 Bcr-Abl) [nM]
1 | CCN(CC)c1ccc(C(=O)Nc2ccc(C)c(Nc3nccc(-c4cccnc4)n3)c2)cc1C(F)(F)F [Example 1, 4-Diethylamino-N-[4-methyl-3-[[4-(3-pyridinyl)-2-pyrimidinyl]amino]phenyl]-3-(trifluoromethyl)-benzamide] | 50 to 100 | 200 to 500
2 | Cc1ccc(NC(=O)c2cc(N3CCOCC3)cc(C(F)(F)F)c2)cc1Nc1nccc(-c2cccnc2)n1 [Example 13, N-[4-Methyl-3-[[4-(3-pyridinyl)-2-pyrimidinyl]amino]phenyl]-3-(4-morpholinyl)-5-(trifluoromethyl)-benzamide] | 5 to 20 | 20 to 80
3 | Cc1ccc(NC(=O)c2cc(-n3ccnc3)cc(C(F)(F)F)c2)cc1Nc1nccc(-c2cccnc2)n1 [Example 10, 3-(1H-Imidazol-1-yl)-N-[4-methyl-3-[[4-(3-pyridinyl)-2-pyrimidinyl]amino]phenyl]-5-(trifluoromethyl)-benzamide] | 5 to 20 | 10 to 50
4 | CCNc1cc(C(=O)Nc2ccc(C)c(Nc3nccc(-c4cccnc4)n3)c2)cc(C(F)(F)F)c1 [Example 17] | 10 to 70 | 20 to 60
5 | Cc1cn(-c2ccc(C(=O)Nc3ccc(C)c(Nc4nccc(-c5cccnc5)n4)c3)cc2C(F)(F)F)c(C)n1 [Example 9, 4-(2,4-Dimethyl-1H-imidazol-1-yl)-N-[4-methyl-3-[[4-(3-pyridinyl)-2-pyrimidinyl]amino]phenyl]-3-(trifluoromethyl)-benzamide] | 5 to 20 | 20 to 80
6 | Cc1cn(-c2cc(C(=O)Nc3ccc(C)c(Nc4nccc(-c5cccnc5)n4)c3)cc(C(F)(F)F)c2)cn1 [Example 12, 3-(4-Methyl-1H-imidazol-1-yl)-N-[4-methyl-3-[4-(3-pyridinyl)-2-pyrimidinyl]amino]phenyl-5-(trifluoromethyl)-benzamide] | 5 to 20 | 10 to 50
7 | Cc1ccc(NC(=O)c2cc(-n3ccnc3C)cc(C(F)(F)F)c2)cc1Nc1nccc(-c2cccnc2)n1 [Example 11, 3-(2-Methyl-1H-imidazol-1-yl)-N-[4-methyl-3-[[4-(3-pyridinyl)-2-pyrimidinyl]amino]phenyl]-5-(trifluoromethyl)-benzamide] | 5 to 20 | 10 to 50
8 | Cc1ccc(NC(=O)c2ccc(N(C)CCN(C)C)c(C(F)(F)F)c2)cc1Nc1nccc(-c2cccnc2)n1 [Example 15, 4-[[2-(Dimethylamino)ethyl]methylamino]-N-[4-methyl-3-[[4-(3-pyridinyl)-2-Pyrimidinyl]amino]phenyl]-3-(trifluoromethyl)-benzamide] | 5 to 20 | 50 to 200
9 | CC(=O)Nc1cc(C(=O)Nc2ccc(C)c(Nc3nccc(-c4cccnc4)n3)c2)cc(C(F)(F)F)c1 [Example 18, 3-Acetylamino-N-[4-methyl-3-[[4-(3-pyridinyl)-2-pyrimidinyl]amino]phenyl]-5-(trifluoromethyl)-benzamide] | – | 13

Other lines, results leading:

Row | IC50 [1] [nM] | IC50 (p210 Bcr-Abl) [nM] | Compound
10 | 40 to 100 | 20 to 100 | Cc1ccc(NC(=O)c2ccc(N3CCOCC3)c(C(F)(F)F)c2)cc1Nc1nccc(-c2cccnc2)n1 [Example 3, N-[4-Methyl-3-[[4-(3-pyridinyl)-2-pyrimidinyl]amino]phenyl]-4-(4-morpholinyl)-3 (trifluoromethyl)-benzamide]
11 | 10 to 60 | 100 to 300 | Cc1ccc(NC(=O)c2ccc(N3CCCC3)c(C(F)(F)F)c2)cc1Nc1nccc(-c2cccnc2)n1 [Example 2, N-[4-Methyl-3-[[4-(3-pyridinyl)-2-pyrimidinyl]amino]phenyl]-4-(1-pyrrolidinyl)-3-(trifluoromethyl)-benzamide]
12 | 5 to 20 | 10 to 50 | Cc1ccc(NC(=O)c2ccc(-n3ccnc3)c(C(F)(F)F)c2)cc1Nc1nccc(-c2cccnc2)n1 [Example 6, 4-(1H-Imidazol-1-yl)-N-[4-methyl-3-[[4-(3-pyridinyl)-2-pyrimidinyl]amino]phenyl]-3-(trifluoromethyl)-benzamide]
13 | 5 to 20 | 10 to 50 | Cc1cn(-c2ccc(C(=O)Nc3ccc(C)c(Nc4nccc(-c5cccnc5)n4)c3)cc2C(F)(F)F)cn1 [Example 8, 4-(4-Methyl-1H-imidazol-1-yl)-N-[4-methyl-3-[[4-(3-pyridinyl)-2-pyrimidinyl]amino]phenyl]-3-(trifluoromethyl)-benzamide]
14 | 5 to 20 | 10 to 50 | Cc1ccc(NC(=O)c2ccc(-n3ccnc3C)c(C(F)(F)F)c2)cc1Nc1nccc(-c2cccnc2)n1 [Example 7, 4-(2-Methyl-1H-imidazol-1-yl)-N-[4-methyl-3-[[4-(3-pyridinyl)-2-pyrimidinyl]amino]phenyl]-3-(trifluoromethyl)-benzamide]
15 | 60 to 110 | 80 to 200 | Cc1ccc(NC(=O)c2ccc(N3CCCCC3)c(C(F)(F)F)c2)cc1Nc1nccc(-c2cccnc2)n1 [Example 4, N-[4-Methyl-3-[[4-(3-pyridinyl)-2-pyrimidinyl]amino]phenyl]-4-(1-piperidinyl)-3-(trifluoromethyl)-benzamide]
16 | 5 to 20 | 30 to 180 | Cc1ccc(NC(=O)c2cc(N3CCN(C)CC3)cc(C(F)(F)F)c2)cc1Nc1nccc(-c2cccnc2)n1 [Example 14, 3-(4-Methyl-1-piperazinyl)-N-[4-methyl-3-[[4-(3-pyridinyl)-2-pyrimidinyl]amino]phenyl]-5-(trifluoromethyl)-benzamide]
17 | 5 to 50 | 30 to 100 | Cc1ccc(NC(=O)c2ccc(N3CCN(C)CC3)c(C(F)(F)F)c2)cc1Nc1nccc(-c2cccnc2)n1 [Example 5, 4-(4-Methyl-1-piperazinyl)-N-[4-methyl-3-[[4-(3-pyridinyl)-2-pyrimidinyl]amino]phenyl]-3-(trifluoromethyl)-benzamide]
18 | 5 to 20 | 50 to 200 | Cc1ccc(NC(=O)c2ccc(N(C)C3CCN(C)CC3)c(C(F)(F)F)c2)cc1Nc1nccc(-c2cccnc2)n1 [Example 16, 4-[Methyl-(1-methyl-4-piperidinyl)amino]-N-[4-methyl-3-[[4-(3-Pyridinyl)-2-pyrimidinyl]amino]phenyl]-3-(trifluoromethyl)-benzamide]
